Test results taken from patent US8569306B2, “JNK modulators” (Hoffmann-La Roche, Inc., priority 2009, dated 2013).

Legend:
[1] = biological target: Human JNK2α2 (Homo sapiens (Human), UniProt P45984); assay: JNK assay in vitro, phosphorylation of GST-ATF2 (19-96) with [γ-33P] ATP; type: biochemical; conditions: Human JNK2α2, 1 nM enzyme, 1 μM ATF2, 8 μM ATP; read-out: JNK2 − IC50
Method: (§1) JNK activity was measured by phosphorylation of GST-ATF2 (19-96) with [γ-^33P] ATP. […] Human JNK2α2 assay contains 1 nM enzyme, 1 μM ATF2, 8 μM ATP with 1 μCi [γ-^33P] ATP. Human JNK1α1 assay contains 2 nM enzyme, 1 μM ATF2, 6 μM ATP with 1 μCi [γ-^33P] ATP. Human JNK3 (Upstate Biotech #14-501M) assay contains 2 nM enzyme, 1 μM ATF2, 4 μM ATP with 1 μCi [γ-^33P] ATP. The enzyme assay was carried out in the presence or absence of several compound concentrations. JNK and compound were pre-incubated for 10 min, followed by initiation of the enzymatic reaction by adding ATP and the substrate. The reaction mixture was incubated at 30° C. for 30 min. At the end of incubation, the reaction was terminated by transferring 25 μl of the reaction mixture to 150 μl of 10% glutathione Sepharose® slurry (Amersham #27-4574-01) containing 135 mM EDTA. The reaction product was captured on the affinity resin, and washed on a filtration plate (Millipore, MABVNOB50) with phosphate buffered saline for six times to remove free radionucleotide. The incorporation of ^33P into ATF2 was quantified on a microplate scintillation counter (Packard Topcount). Compound inhibition potency on JNK was measured by IC50 value generated from ten concentration inhibition curves fitted into the 3-parameter model: % inhibition=Maximum/(1+(IC50/[Inhibitor])^slope). Data were analyzed on Microsoft Excel for parameter estimation.

[2] = biological target: Human JNK1α1 (Homo sapiens (Human), UniProt P45983); assay: as above; type: biochemical; conditions: Human JNK1α1, 2 nM enzyme, 1 μM ATF2, 6 μM ATP; read-out: JNK1 − IC50
Chain of Human JNK1α1 (P45983 other isoform, or with tags, fused parts or gaps): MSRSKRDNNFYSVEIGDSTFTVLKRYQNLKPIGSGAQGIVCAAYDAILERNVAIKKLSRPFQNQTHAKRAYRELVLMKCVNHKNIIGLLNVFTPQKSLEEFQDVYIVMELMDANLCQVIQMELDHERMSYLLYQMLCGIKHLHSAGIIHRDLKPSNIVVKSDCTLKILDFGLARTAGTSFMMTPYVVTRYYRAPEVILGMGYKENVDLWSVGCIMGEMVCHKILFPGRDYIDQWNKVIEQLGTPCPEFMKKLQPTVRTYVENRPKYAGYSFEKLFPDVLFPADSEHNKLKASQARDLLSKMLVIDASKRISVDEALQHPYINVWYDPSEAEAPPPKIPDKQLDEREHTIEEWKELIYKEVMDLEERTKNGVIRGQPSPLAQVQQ
Method: as §1

Chain of Human JNK2α2 (P45984 whole entry): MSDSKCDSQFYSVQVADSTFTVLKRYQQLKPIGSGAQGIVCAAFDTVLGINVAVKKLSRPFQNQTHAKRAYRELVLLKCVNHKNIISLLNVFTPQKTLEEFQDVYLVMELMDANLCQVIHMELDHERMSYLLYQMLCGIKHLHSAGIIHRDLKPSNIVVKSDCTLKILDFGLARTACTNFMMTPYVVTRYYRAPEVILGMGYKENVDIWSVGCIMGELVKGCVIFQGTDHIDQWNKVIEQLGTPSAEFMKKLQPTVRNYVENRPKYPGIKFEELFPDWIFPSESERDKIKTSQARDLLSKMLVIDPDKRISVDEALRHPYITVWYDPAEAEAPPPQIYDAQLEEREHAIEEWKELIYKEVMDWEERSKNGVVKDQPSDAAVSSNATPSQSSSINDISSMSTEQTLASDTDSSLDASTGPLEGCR

Row | SMILES | IC50 [1] | IC50 [2] | melting point
1 | CC(C)(O)c1cccn2c(-c3ccnc(N[C@H]4CC[C@H](C(=O)N5CCC(O)CC5)CC4)n3)cnc12 [Compound 2, (4-{4-[8-(1-hydroxy-1-methyl-ethyl)-imidazo[1,2-a]pyridin-3-yl]-pyrimidin-2-ylamino}-cyclohexyl)-(4-hydroxy-piperidin-1-yl)-methanone] | 369 nM | – | 188 to 190 °C
2 | CC(C)(O)c1cccn2c(-c3ccnc(N[C@H]4CC[C@H](CS(C)(=O)=O)CC4)n3)cnc12 [Compound 1, 2-{3-[2-(4-methanesulfonylmethyl-cyclohexylamino)-pyrimidin-4-yl]-imidazo[1,2-a]pyridin-8-yl}-propan-2-ol] | 295 nM | – | 223 to 224 °C
3 | CN(C)S(=O)(=O)N[C@H]1CC[C@H](Nc2nccc(-c3cnc4c(C(C)(C)O)cccn34)n2)CC1 [Compound 4, N-(4-{4-[8-(1-Hydroxy-1-methyl-ethyl)-imidazo[1,2-a]pyridine-3-yl]-pyrimidin-2-ylamino}-cyclohexyl)-(N,N-dimethylamino)sulfonamide] | 124 nM | – | > 300 °C
4 | CS(=O)(=O)N[C@H]1CC[C@H](Nc2nccc(-c3cnc4ccccn34)n2)CC1 [Compound 10, N-[4-(4-Imidazo[1,2-a]pyridin-3-yl-pyrimidin-2-ylamino)-cyclohexyl]-methanesulfonamide] | 214 nM | 56.7 nM | 259 to 261 °C
5 | O[C@H]1CC[C@H](Nc2nccc(-c3cnc4ccccn34)n2)CC1 [Compound 11, 4-(4-Imidazo[1,2-a]pyridin-3-yl-pyrimidin-2-ylamino)-cyclohexanol] | 254 nM | 86.6 nM | –
6 | CC(C)(O)c1cccn2c(-c3ccnc(N[C@H]4CC[C@H](NS(C)(=O)=O)CC4)n3)cnc12 [Compound 3, N-(4-{4-[8-(1-Hydroxy-1-methyl-ethyl)-imidazo[1,2-a]pyridine-3-yl]-pyrimidin-2-ylamino}-cyclohexyl)-methanesulfonamide] | – | – | 249 to 250 °C

The remaining compounds from weak to strong by IC50 [1], led by results:

Row | IC50 [1] | IC50 [2] | melting point | SMILES
7 | 104 nM | 48.9 nM | 147 to 149 °C | CCOC(=O)[C@H]1CC[C@H](Nc2nccc(-c3cnc4c(OCc5ccccc5)cccn34)n2)CC1 [Compound 8, 4-[4-(8-benzyloxy-imidazo[1,2-a]pyridine-3-yl)-pyrimidin-2-ylamino]-cyclohexanecarboxylic acid ethyl ester]
8 | 55.9 nM | 33.3 nM | 210 to 212 °C | O=C([C@H]1CC[C@H](Nc2nccc(-c3cnc4c(OCc5ccccc5)cccn34)n2)CC1)N1CCC(O)CC1 [Compound 6, {4-[4-(8-Benzyloxy-imidazo[1,2-a]pyridin-3-yl)-pyrimidin-2-ylamino]-cyclohexyl}-(4-hydroxy-piperidin-1-yl)-methanone]
9 | 52.7 nM | 23.7 nM | 236.9 to 241 °C | CS(=O)(=O)N[C@H]1CC[C@H](Nc2nccc(-c3cnc4c(OCc5ccccc5)cccn34)n2)CC1 [Compound 7, N-{4-[4-(8-benzyloxy-imidazo[1,2-a]pyridin-3-yl)-pyrimidin-2-ylamino]-cyclohexyl}-methanesulfonamide]
10 | 50.3 nM | 21.6 nM | 258 to 259 °C | CS(=O)(=O)CCCOc1cccn2c(-c3ccnc(N[C@H]4CC[C@H](C(=O)N5CCC(O)CC5)CC4)n3)cnc12 [Compound 5, (4-Hydroxy-piperidin-1-yl)-(4-{4-[8-(3-methanesulfonyl-propoxy)-imidazo[1,2-a]pyridin-3-yl]-pyrimidin-2-ylamino}-cyclohexyl)-methanone]
11 | 49.4 nM | 26.9 nM | 236 to 238 °C | O[C@H]1CC[C@H](Nc2nccc(-c3cnc4c(OCc5ccccc5)cccn34)n2)CC1 [Compound 9, 4-[4-(8-Benzyloxy-imidazo[1,2-a]pyridin-3-yl)-pyrimidin-2-yl-amino]-cyclohexanol]
